# Data reported in article PMC11097166, “Imidazole-Derived Alkyl and Aryl Ethers: Synthesis, Characterization, In Vitro Anticancer and Antioxidant Activities, Carbonic Anhydrase I–II Inhibition Properties, and In Silico Studies” (ACS Omega, 2024).
# Columns and labels:
# [1] = FRAP antioxidant assay; settings: trolox standard curve
# Experimental: The FRAP method was used to determine the antioxidant power of compounds. This method, which determines the reducing power of compounds, was developed by Benzie and Strain.[48] Fe(III)–TPTZ complex is formed as a result of the reaction of Fe(III) with tripyridyltriazine (TPTZ), and this complex is reduced to the Fe(II)–TPTZ complex with the antioxidant in the environment. The color of this complex is dark blue and gives the maximum absorbance at 593 nm.[48] Incubation is performed for up to 30 min to complete the reaction, and the correct absorbance values were read. The FRAP values of the samples were calculated as “μmol trolox equiv/g sample” with the help of the standard curve obtained using methanol–trolox standard solutions (0; 0.2; 0.4; 0.6; 0.8; and 1.0 μmol/mL) which were used as the positive control.[49] […]
# [2] = target: hCA II (Homo sapiens, UniProt P00918); test: CA esterase activity method, hCA II; type: biochemical; settings: for Effect on hCA II isoenzyme activity: Table S3; for IC50: esterase activity, p-nitrophenyl acetate substrate; for Effect on hCA II isoenzyme activity: key: +: active; -: not effect
# Source text: (§1) The method used to spectrophotometrically detect the antiepileptic, antiglaucoma, and […] effects of the obtained compounds in vitro is the esterase activity method. This method relies on the esterase activity of CA for the hydrolysis of p-nitrophenyl acetate as a substrate, which is a part of the reaction mechanism involving p-nitrophenol or p-nitrophenolate.
# [3] = target: hCA I (Homo sapiens, UniProt P00915); test: CA esterase activity method, hCA I; type: biochemical; settings: for Effect on hCA I isoenzyme activity: Table S3; for IC50: esterase activity, p-nitrophenyl acetate substrate; for Effect on hCA I isoenzyme activity: key: +: active; -: not effect
# Source text: as §1
# [4] = test system: HT29 colon cancer cell line; test: MTT cell viability assay on HT29; type: cell-based, human; settings: 24 h incubation
# Source text: (§2) 96-well plates were used for seeding cells. […] All compounds were run in three repetitions.
# [5] = test system: L929 mouse fibroblast cell line; test: MTT cell viability assay on L929; settings: read-out: IC50 L929; 24 h incubation, MTT
# Experimental: Human breast adenocarcinoma cell line (MCF7), rat glial tumor cell line (C6), healthy mouse fibroblast cell line (L929), and colon cancer (HT29) cell line were purchased from ATCC (American type culture collection) and studied.
# The cytotoxic effects of all compounds by MTT analysis on L929, HT29, MCF7, and C6 cell lines were investigated. 96-well plates were used for seeding cells. Approximately 1 × 10^4 cells were seeded in each well. Cells were allowed to adhere for 24 h, and then the compounds were applied at different concentrations. All compounds were run in three repetitions. Wells with a maximum of 100 μM compounds were incubated for 24 h. Three wells without compounds treated with only DMSO (with total volume of % 0.5) were used as negative controls, and cisplatin was used as a positive control. […] After the MTT interaction, the FRAP wells were emptied, and DMSO solution was placed in them. The formazan crystals formed were dissolved with this solution, and the number of viable cells in each well was determined by color change.
# [6] = test system: MCF7 human breast adenocarcinoma cell line; test: MTT cell viability assay on MCF7; type: cell-based; settings: 24 h incubation
# Source text: as §2
# [7] = test system: C6 rat glial tumor cell line; test: MTT cell viability assay on C6; type: cell-based; settings: 24 h incubation
# Source text: as §2
# Sequence of hCA I (P00915 whole entry): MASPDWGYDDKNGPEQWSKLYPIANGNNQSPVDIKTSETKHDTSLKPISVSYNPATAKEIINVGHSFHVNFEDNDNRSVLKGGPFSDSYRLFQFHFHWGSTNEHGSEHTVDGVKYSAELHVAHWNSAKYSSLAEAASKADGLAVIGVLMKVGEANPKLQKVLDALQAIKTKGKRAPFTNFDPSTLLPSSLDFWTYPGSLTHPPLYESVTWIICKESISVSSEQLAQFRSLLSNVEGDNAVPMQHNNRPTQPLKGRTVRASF
Effect on hCA II isoenzyme activity [2],Effect on hCA I isoenzyme activity [3],IC50 [2],IC50 [3],Molecule,FRAP [1],other results
+,+,–,–,"c1ccc(COC(Cn2ccnc2)c2ccccc2)cc1 (stereo not shown) [Compound 16, 1-(2-(Benzyloxy)-2-phenylethyl)-1H-imidazole]",0.41 ± 0.03 μmol trolox equiv/g,–
–,–,14.8 nM,13.2 nM,"Clc1ccc(COC(Cn2ccnc2)c2ccccc2)cc1 (stereo not shown) [Compound 17, 1-(2-((4-Chlorobenzyl)oxy)-2-phenylethyl)-1H-imidazole]",0.35 ± 0.07 μmol trolox equiv/g,–
+,+,–,–,"Cc1ccc(COC(Cn2ccnc2)c2ccccc2)cc1 (stereo not shown) [Compound 18, 1-(2-((4-Methylbenzyl)oxy)-2-phenylethyl)-1H-imidazole]",0.30 ± 0.04 μmol trolox equiv/g,–
–,–,11.7 nM,15.7 nM,"Clc1ccc(C(Cn2ccnc2)OCc2ccccc2)cc1 (stereo not shown) [Compound 19, 1-(2-(Benzyloxy)-2-(4-chlorophenyl)ethyl)-1H-imidazole]",0.27 ± 0.01 μmol trolox equiv/g,–
–,–,10.9 nM,4.13 nM,"Clc1ccc(COC(Cn2ccnc2)c2ccc(Cl)cc2)cc1 (stereo not shown) [Compound 20, 1-(2-((4-Chlorobenzyl)oxy)-2-(4-chlorophenyl)ethyl)-1H-imidazole]",0.31 ± 0.06 μmol trolox equiv/g,–
–,–,7.9 nM,9.83 nM,"Cc1ccc(COC(Cn2ccnc2)c2ccc(Cl)cc2)cc1 (stereo not shown) [Compound 21, 1-(2-(4-Chlorophenyl)-2-((4-methylbenzyl)oxy)ethyl)-1H-imidazole]",0.25 ± 0.01 μmol trolox equiv/g,–
–,–,5.65 nM,7.49 nM,"COc1ccc(C(Cn2ccnc2)OCc2ccc(Cl)cc2)cc1 (stereo not shown) [Compound 23, 1-(2-((4-Chlorobenzyl)oxy)-2-(4-methoxyphenyl)ethyl)-1H-imidazole]",0.45 ± 0.04 μmol trolox equiv/g,melting point: 104 to 105 °C
–,–,9.66 nM,4.77 nM,"COc1ccc(C(Cn2ccnc2)OCc2ccc(C)cc2)cc1 (stereo not shown) [Compound 24, 1-(2-(4-Methoxyphenyl)-2-((4-methylbenzyl)oxy)ethyl)-1H-imidazole]",0.46 ± 0.06 μmol trolox equiv/g,–

# The next lines start with the molecule.
Molecule,Effect on hCA II isoenzyme activity [2],Effect on hCA I isoenzyme activity [3],IC50 [2],IC50 [3],FRAP [1],other results
"CCCOC(Cn1ccnc1)c1ccc(OC)cc1 (stereo not shown) [Compound 14, 1-(2-(4-Methoxyphenyl)-2-propoxyethyl)-1H-imidazole]",+,+,–,–,0.28 ± 0.01 μmol trolox equiv/g,–
"C=CCOC(Cn1ccnc1)c1ccc(OC)cc1 (stereo not shown) [Compound 15, 1-(2-(Allyloxy)-2-(4-methoxyphenyl)ethyl)-1H-imidazole]",+,+,–,–,0.31 ± 0.03 μmol trolox equiv/g,–
"COc1ccc(C(Cn2ccnc2)OCc2ccccc2)cc1 (stereo not shown) [Compound 22, 1-(2-(Benzyloxy)-2-(4-methoxyphenyl)ethyl)-1H-imidazole]",–,–,–,–,0.40 ± 0.05 μmol trolox equiv/g,–
"N.N.[Cl][Pt][Cl] [cisplatin, reference compound]",–,–,–,–,–,IC50 [4]: 68200 ± 3390 nM; IC50 [5]: 277700 ± 1090 nM; IC50 [6]: 26800 ± 11000 nM; IC50 [7]: 88200 ± 12100 nM
vitamin E [reference compound],–,–,–,–,1.00 ± 0.04 μmol trolox equiv/g,–
